Assay results taken from US6740642B2, “Macrolides with antibacterial activity” (BAsilea Parmaceutica AG, priority 2000, dated 2004).
In brackets after ≈: the same amount, converted by molar mass.

Assays:
Assay in all cases: MIC, standard microdilution
St. pneumoniae 1/4 = type: cell-based, Streptococcus pneumoniae; settings: for MIC: Streptococcus pneumoniae, read-out: minimum inhibitory concentration (MIC)
Source text: (§1) The antibacterial activities of the compounds have been determined by standard microdilution technique (National Committee for Clinical Laboratory Standards. 1997. Methods for dilution antimicrobial susceptibility tests for bacteria that grow aerobically, 4th edition. Approved standard M7-A4. National Committee for Clinical Laboratory Standards, Wayne, Pa.).

St. pneumoniae 1/1 = type: cell-based, Streptococcus pneumoniae; settings: for MIC: Streptococcus pneumoniae, read-out: minimum inhibitory concentration (MIC)
Source text: as §1

St. pneumoniae 12288 = type: cell-based, Streptococcus pneumoniae; settings: for MIC: Streptococcus pneumoniae, read-out: minimum inhibitory concentration (MIC)
Source text: as §1

St. pneumoniae SL199T = type: cell-based, Streptococcus pneumoniae; settings: for MIC: Streptococcus pneumoniae, read-out: minimum inhibitory concentration (MIC)
Source text: as §1

E. coli ATCC25922 = type: cell-based; settings: for MIC: Escherichia coli, read-out: minimum inhibitory concentration (MIC)
Source text: as §1

[1] = tested on: P. aeruginosa ATCC27853 (+Ery. 32 μg/ml); type: cell-based
Source text: as §1

S. aureus ATCC29213 = type: cell-based, Staphylococcus aureus; settings: for MIC: Staphylococcus aureus, read-out: minimum inhibitory concentration (MIC)
Source text: as §1

S. aureus 745 = type: cell-based, Staphylococcus aureus; settings: for MIC: Staphylococcus aureus, read-out: minimum inhibitory concentration (MIC)
Source text: as §1

S. aureus 1086 = type: cell-based, Staphylococcus aureus; settings: for MIC: Staphylococcus aureus, read-out: minimum inhibitory concentration (MIC)
Source text: as §1

Row | SMILES | MIC (St. pneumoniae 1/4) | MIC (St. pneumoniae 1/1) | MIC (St. pneumoniae 12288) | MIC (St. pneumoniae SL199T) | MIC (E. coli ATCC25922) | minimum inhibitory concentration (MIC) [1] | MIC (S. aureus ATCC29213) | MIC (S. aureus 745) | MIC (S. aureus 1086) | minimum inhibitory concentration (MIC) (St. pneumoniae 1/4) | minimum inhibitory concentration (MIC) (St. pneumoniae 1/1) | minimum inhibitory concentration (MIC) (St. pneumoniae 12288) | minimum inhibitory concentration (MIC) (St. pneumoniae SL199T) | minimum inhibitory concentration (MIC) (E. coli ATCC25922) | minimum inhibitory concentration (MIC) (S. aureus ATCC29213) | minimum inhibitory concentration (MIC) (S. aureus 745) | minimum inhibitory concentration (MIC) (S. aureus 1086)
1 | CC[C@H]1OC(=O)[C@H](C)C(=O)[C@H](C)[C@@H](O[C@@H]2O[C@H](C)C[C@H](N(C)C)[C@H]2O)[C@](C)(OC)C[C@@H](C)C(=O)[C@H](C)[C@H]2[C@H](Sc3ccccc3)C(=O)O[C@@]21C [Compound I-3, (3S,3aR,4R,6R,8R,9R,10R,12R,15R,15aS)-15-Ethyloctahydro-8-methoxy-4,6,8,10,12,15a-hexamethyl-3-[phenylthio]-9-[[3,4,6-trideoxy-3-(dimethylamino)-β-D-xylo-hexopyranosyl]oxy]-2H-furo[2,3-c]oxacyclotetradecin-2,5,11,13(3H,6H,12H)-tetrone] | 2 µg/mL (≈ 2.78 µM) | ≤ 0.5 µg/mL | 16 µg/mL (≈ 22.2 µM) | 16 µg/mL (≈ 22.2 µM) | > 16 µg/mL | >16 µg/mL | 0.5 µg/mL (≈ 0.695 µM) | > 16 µg/mL | 0.5 µg/mL (≈ 0.695 µM) |  |  |  |  |  |  |  | 
2 | CC[C@H]1OC(=O)[C@H](C)C(=O)[C@H](C)[C@@H](O[C@@H]2O[C@H](C)C[C@H](N(C)C)[C@H]2O)[C@](C)(OC)C[C@@H](C)C(=O)[C@H](C)[C@H]2[C@H](SCc3ccccc3)C(=O)O[C@@]21C [Compound I-4, (3S,3aR,4R,6R,8R,9R,10R,12R,15R,15aS)-15-Ethyloctahydro-8-methoxy-4,6,8,10,12,15a-hexamethyl-3-[(phenylmethyl)thio]-9-[[3,4,6-trideoxy-3-(dimethylamino)-β-D-xylo-hexopyranosyl]oxy]-2H-furo[2,3-c]oxacyclotetradecin-2,5,11,13(3H,6H,12H)-tetrone] | 8 µg/mL (≈ 10.9 µM) | ≤ 0.5 µg/mL | 16 µg/mL (≈ 21.8 µM) | 16 µg/mL (≈ 21.8 µM) | > 16 µg/mL | >16 µg/mL | 1 µg/mL (≈ 1.36 µM) | > 16 µg/mL | 1 µg/mL (≈ 1.36 µM) |  |  |  |  |  |  |  | 
3 | CC[C@H]1OC(=O)[C@H](C)C(=O)[C@H](C)[C@@H](O[C@@H]2O[C@H](C)C[C@H](N(C)C)[C@H]2O)[C@](C)(OC)C[C@@H](C)C(=O)[C@H](C)[C@H]2[C@H](SC)C(=O)O[C@@]21C [Compound I-5, (3S,3aR,4R,6R,8R,9R,10R,12R,15R,15aS)-15-Ethyloctahydro-8-methoxy-4,6,8,10,12,15a-hexamethyl-3-[methylthio]-9-[[3,4,6-trideoxy-3-(dimethylamino)-β-D-xylo-hexopyranosyl]oxy]-2H-furo[2,3-c]oxacydotetradecin-2,5,11,13(3H,6H,12H)-tetrone] |  |  |  |  |  | >16 µg/mL |  |  |  | 32 µg/mL (≈ 48.6 µM) | <=0.5 μg/ml | >32 µg/mL | 16 µg/mL (≈ 24.3 µM) | >16 µg/mL | 0.5 µg/mL (≈ 0.76 µM) | >16 µg/mL | 0.5 µg/mL (≈ 0.76 µM)
4 | CC[C@H]1OC(=O)[C@H](C)C(=O)[C@H](C)[C@@H](O[C@@H]2O[C@H](C)C[C@H](N(C)C)[C@H]2O)[C@](C)(OC)C[C@@H](C)C(=O)[C@H](C)[C@H]2[C@H](SCCOc3ccccc3)C(=O)O[C@@]21C [Compound I-11, (3S,3aR,4R,6R,8R,9R,10R,12R,15R,15aS)-15-Ethyloctahydro-8-methoxy-4,6,8,10,12,15a-hexamethyl-3-[[2-phenoxyethyl]thio]-9-[[3,4,6-trideoxy-3-(dimethylamino)-β-D-xylo-hexopyranosyl]oxy]-2H-furo[2,3-c]oxacyclotetradecin-2,5,11,13(3H,6H,12H)-tetrone] | 4 µg/mL (≈ 5.24 µM) | ≤ 0.5 µg/mL | 8 µg/mL (≈ 10.5 µM) | 4 µg/mL (≈ 5.24 µM) | > 16 µg/mL | >16 µg/mL | ≤ 0.25 µg/mL | > 16 µg/mL | ≤ 0.25 µg/mL |  |  |  |  |  |  |  | 
5 | CC[C@H]1OC(=O)[C@H](C)C(=O)[C@H](C)[C@@H](O[C@@H]2O[C@H](C)C[C@H](N(C)C)[C@H]2O)[C@](C)(OC)C[C@@H](C)C(=O)[C@H](C)[C@H]2[C@H](Sc3ccc(OC)c(OC)c3)C(=O)O[C@@]21C [Compound I-12] |  |  |  |  |  | >16 µg/mL |  |  |  | 1 µg/mL (≈ 1.28 µM) | <=0.5 μg/ml | 16 µg/mL (≈ 20.5 µM) | 8 µg/mL (≈ 10.3 µM) | >16 µg/mL | 0.5 µg/mL (≈ 0.641 µM) | >16 µg/mL | 0.5 µg/mL (≈ 0.641 µM)

Continued, values first:

Row | MIC (St. pneumoniae 1/4) | MIC (St. pneumoniae 1/1) | MIC (St. pneumoniae 12288) | MIC (St. pneumoniae SL199T) | MIC (E. coli ATCC25922) | minimum inhibitory concentration (MIC) [1] | MIC (S. aureus ATCC29213) | MIC (S. aureus 745) | MIC (S. aureus 1086) | minimum inhibitory concentration (MIC) (St. pneumoniae 1/4) | minimum inhibitory concentration (MIC) (St. pneumoniae 1/1) | minimum inhibitory concentration (MIC) (St. pneumoniae 12288) | minimum inhibitory concentration (MIC) (St. pneumoniae SL199T) | minimum inhibitory concentration (MIC) (E. coli ATCC25922) | minimum inhibitory concentration (MIC) (S. aureus ATCC29213) | minimum inhibitory concentration (MIC) (S. aureus 745) | minimum inhibitory concentration (MIC) (S. aureus 1086) | SMILES
6 | 1 µg/mL (≈ 1.34 µM) | ≤ 0.5 µg/mL | 32 µg/mL (≈ 42.8 µM) | 4 µg/mL (≈ 5.35 µM) | > 16 µg/mL | >16 µg/mL | ≤ 0.25 µg/mL | > 16 µg/mL | ≤ 0.25 µg/mL |  |  |  |  |  |  |  |  | CC[C@H]1OC(=O)[C@H](C)C(=O)[C@H](C)[C@@H](O[C@@H]2O[C@H](C)C[C@H](N(C)C)[C@H]2O)[C@](C)(OC)C[C@@H](C)C(=O)[C@H](C)[C@H]2[C@H](SCCc3ccccc3)C(=O)O[C@@]21C [Compound I-1, (3S,3aR,4R,6R,8R,9R,10R,12R,15R,15aS)-15-Ethyloctahydro-8-methoxy-4,6,8,10,12,15a-hexamethyl-3-[[2-phenylethyl]thio]-9-[[3,4,6-trideoxy-3-(dimethylamino)-β-D-xylo-hexopyranosyl]oxy]-2H-furo[2,3-c]oxacyclotetradecin-2,5,11,13(3H,6H,12H)-tetrone]
7 | 0.25 µg/mL (≈ 0.328 µM) | ≤ 0.12 µg/mL | 8 µg/mL (≈ 10.5 µM) | 2 µg/mL (≈ 2.62 µM) | > 16 µg/mL | >16 µg/mL | ≤ 0.12 µg/mL | > 16 µg/mL | ≤ 0.12 µg/mL |  |  |  |  |  |  |  |  | CC[C@H]1OC(=O)[C@H](C)C(=O)[C@H](C)[C@@H](O[C@@H]2O[C@H](C)C[C@H](N(C)C)[C@H]2O)[C@](C)(OC)C[C@@H](C)C(=O)[C@H](C)[C@H]2[C@H](SCCCc3ccccn3)C(=O)O[C@@]21C [Compound I-10, (3S,3aR,4R,6R,8R,9R,10R,12R,15R,15aS)-15-Ethyloctahydro-8-methoxy-4,6,8,10,12,15a-hexamethyl-3-[[3-(2-pyridinyl)propyl]thio]-9-[[3,4,6-trideoxy-3-(dimethylamino)-β-D-xylo-hexopyranosyl]oxy]-2H-furo[2,3-c]oxacyclotetradecin-2,5,11,13(3H,6H,12H)-tetrone]
8 | 1 µg/mL (≈ 1.34 µM) | ≤ 0.5 µg/mL | 8 µg/mL (≈ 10.7 µM) | 2 µg/mL (≈ 2.67 µM) | 16 µg/mL (≈ 21.4 µM) | >16 µg/mL | ≤ 0.25 µg/mL | > 16 µg/mL | ≤ 0.25 µg/mL |  |  |  |  |  |  |  |  | CC[C@H]1OC(=O)[C@H](C)C(=O)[C@H](C)[C@@H](O[C@@H]2O[C@H](C)C[C@H](N(C)C)[C@H]2O)[C@](C)(OC)C[C@@H](C)C(=O)[C@H](C)[C@H]2[C@H](SCCc3ccccn3)C(=O)O[C@@]21C [Compound I-13, (3S,3aR,4R,6R,8R,9R,10R,12R,15R,15aS)-15-Ethyloctahydro-8-methoxy-4,6,8,10,12,15a-hexamethyl-3-[[2-(2-pyridinyl)ethyl]thio]-9-[[3,4,6-trideoxy-3-(dimethylamino)-β-D-xylo-hexopyranosyl]oxy]-2H-furo[2,3-c]oxacyclotetradecin-2,5,11,13(3H,6H,12H)-tetrone]
9 | ≤ 0.12 µg/mL | ≤ 0.12 µg/mL | 0.5 µg/mL (≈ 0.613 µM) | 0.5 µg/mL (≈ 0.613 µM) | > 16 µg/mL | >16 µg/mL | ≤ 0.12 µg/mL | > 16 µg/mL | ≤ 0.12 µg/mL |  |  |  |  |  |  |  |  | CC[C@H]1OC(=O)[C@H](C)C(=O)[C@H](C)[C@@H](O[C@@H]2O[C@H](C)C[C@H](N(C)C)[C@H]2O)[C@](C)(OC)C[C@@H](C)C(=O)[C@H](C)[C@H]2[C@H](SCCn3ccc(-c4cccnc4)n3)C(=O)O[C@@]21C [Compound I-16, (3S,3aR,4R,6R,8R,9R,10R,12R,15R,15aS)-15-Ethyloctahydro-8-methoxy-4,6,8,10,12,15a-hexamethyl-3-[[2-[3-(3-pyridinyl)-1H-pyrazol-1-yl]-ethyl]thio]-9-[[3,4,6-trideoxy-3-(dimethylamino)-β-D-xylo-hexopyranosyl]oxy]-2H-furo[2,3-c]oxacyclotetradecin-2,5,11,13(3H,6H,12H)-tetrone]
10 | ≤ 0.12 µg/mL | ≤ 0.12 µg/mL |  | 1 µg/mL (≈ 1.23 µM) | > 16 µg/mL | >16 µg/mL | ≤ 0.12 µg/mL | > 16 µg/mL | ≤ 0.12 µg/mL |  |  |  |  |  |  |  |  | CC[C@H]1OC(=O)[C@H](C)C(=O)[C@H](C)[C@@H](O[C@@H]2O[C@H](C)C[C@H](N(C)C)[C@H]2O)[C@](C)(OC)C[C@@H](C)C(=O)[C@H](C)[C@H]2[C@H](SCCn3cnc(-c4cccnc4)n3)C(=O)O[C@@]21C [Compound I-17, (3S,3aR,4R,6R,8R,9R,10R,12R,15R,15aS)-15-Ethyloctahydro-8-methoxy-4,6,8,10,12,15a-hexamethyl-3-[[2-[3-(3-pyridinyl)-1H-1,2,4-triazol-1-yl]ethyl]thio]-9-[[3,4,6-trideoxy-3-(dimethylamino)-β-D-xylo-hexopyranosyl]oxy]-2H-furo[2,3-c]oxacyclotetradecin-2,5,11,13(3H,6H,12H)-tetrone]
